Laboratory results as given in patent US10806798B2, “Compound with effects of thrombolysis, free radical scavenging and thrombus-targeting” (Shanghai Lumosa Therapeutics Co., Ltd., priority 2012, dated 2020).

How the values were obtained:
Assay type in all cases: in vivo, SD rats
[1] = test system: rats with stroke; assay: Successive treatments with 1 μmol/kg Ie starting 6 h after the onset of stroke (Zealonga scores)
Protocol: The efficacy was represented by neural function scores, and a lower score indicates higher efficacy. A 10% chloral hydrate solution was injected intraperitoneally into male SD rats at a dosage of 400 mg/kg body weight for anesthesia. A longitudinal open incision was made at the center of the neck, and the right common carotid artery trunk was dissected (about 3 cm in length). Carotid external artery branches were each dissected and ligated at the hyoid level, and the carotid internal artery was dissected at the swollen part of the neck. The open incision in the carotid internal artery and the proximal end of the common carotid artery were occluded respectively with noninvasive arterial clips, and the distal end of the carotid external artery was ligated. A catheter containing 0.5 mL thrombus suspension in normal saline was inserted in the carotid external artery trunk. At the same time when the clip on the carotid internal artery was released, the 0.5 mL thrombus suspension in normal saline in the catheter slowly flew from the carotid external artery to its proximal end, and then was injected into the arteries in brain through the carotid internal artery. Subsequently, the proximal end of the carotid artery was ligated, the arterial clips on the carotid internal artery and the common carotid artery were released, and blood flow was restored. After the wound was stitched up, 20,000 IU penicillin was intramuscularly injected for prevention from infection. After 6 h, compound Ie in normal saline (at a dosage of 1 μmol/kg, n=11), urokinase in normal saline (at a dosage of 20000 IU/kg, n=6) or tPA in normal saline (at a dosage of 3 mg/kg, n=6) was infused through the tail vein. Infusion of compound Ie in normal saline through rat tail vein was carried out once per day for 6 consecutive days, observed for 7 days. The rats were compared to themselves each day, and evaluated for the degree of damage in neural function by the Zealonga method. Alternatively, infusion of urokinase in normal saline through rat tail vein was carried out once per day for two consecutive days, the rats were compared to themselves each day, and evaluated for the degree of damage in neural function by the Zealonga method. Alternatively, infusion of tPA in normal saline through rat tail vein was carried out once per day for two consecutive days, the rats were compared to themselves each day, and evaluated for the degree of damage in neural function by the Zealonga method. A score of 0 indicated no sign of loss in neural function, 1 indicated the front limbs on the undamaged side could not stretch out, 2 indicated walking toward the undamaged side, 3 indicated tail-chasing walking in circles toward the undamaged side, 4 indicated involuntary walking with disturbance of consciousness, and 5 indicated death.

[2] = test system: rats with stroke; assay: Successive treatments starting 4 h after the onset of stroke (Zealonga scores)
Protocol: The efficacy was represented by neural function scores, and a lower score indicates higher efficacy. A 10% chloral hydrate solution was injected intraperitoneally into male SD rats at a dosage of 400 mg/kg body weight for anesthesia. A longitudinal incision was made at the center of the neck, and the right carotid common artery trunk was dissected (about 3 cm in length). Carotid external artery branches were each dissected and ligated at the hyoid level, and the carotid internal artery was dissected at the swollen part of the neck. The open incision in the carotid internal artery and the proximal end of the common carotid artery were occluded respectively with noninvasive arterial clips, and the distal end of the carotid external artery was ligated. A catheter containing 0.5 mL thrombus suspension in normal saline was inserted in the carotid external artery trunk. At the same time when the clip on the carotid internal artery was released, the 0.5 mL thrombus suspension in normal saline in the catheter slowly flew from the carotid external artery to its proximal end, and then was injected into the arteries in brain through the carotid internal artery. Subsequently, the proximal end of the carotid artery was ligated, the arterial clips on the carotid internal artery and the common carotid artery were released, and blood flow was restored. After the wound was stitched up, 20,000 IU penicillin was intramuscularly injected for prevention from infection. After 4 h, compound Ie in normal saline (at a dosage of 1 μmol/kg, n=1), urokinase in normal saline (at a dosage of 20000 IU/kg, n=6) or tPA in normal saline (at a dosage of 3 mg/kg, n=6) was infused through the tail vein. Infusion of compound Ie in normal saline through rat tail vein was carried out once per day for 6 consecutive days, observed for 7 days. The rats were compared to themselves each day, and evaluated for degree of damage in neural function by the Zealonga method. Alternatively, infusion of urokinase in normal saline through rat tail vein was carried out once per day for two consecutive days, the rats were compared to themselves each day, and evaluated for the degree of damage in neural function by the Zealonga method. Alternatively, infusion of tPA in normal saline through rat tail vein was carried out once per day for two consecutive days, the rats were compared to themselves each day, and evaluated for the degree of damage in neural function by the Zealonga method. A score of 0 indicated no sign of loss in neural function, 1 indicated the front limbs on the undamaged side could not stretch out, 2 indicated walking toward the undamaged side, 3 indicated tail-chasing walking in circles toward the undamaged side, 4 indicated involuntary walking with disturbance of consciousness, and 5 indicated death.

[3] = test system: rats with stroke; assay: Immediate treatment after stroke onset with different dosages of Ie (Zealonga scores)
Protocol: A 10% chloral hydrate solution (400 mg/kg) was injected intraperitoneally into male SD rats (250 to 300 g) for anesthesia. An incision of about 2 cm in length was longitudinally made slightly on the right to the center of the neck, and the right carotid common artery, carotid external artery and carotid internal artery were dissected along the margin of the inner side of sternocleidomastoid muscles. The open incision in the carotid internal artery and the proximal end of the common carotid artery were occluded respectively with noninvasive arterial clips. A small incision was made on the carotid external artery, and the distal end of the carotid external artery was ligated. The arterial clip at the proximal end of the carotid external artery was released, and 10 μl blood was drawn before the proximal end of the common carotid artery was again occluded with a noninvasive arterial clip. The 10 μl blood drawn was placed in a 1 mL EP vial and kept at RT for 30 min until coagulation of blood, and then transferred into a −20° C. refrigerator for 1 h to allow solid coagulation. After 1 h, the blood clots were taken out, added into 1 mL saline, and then broken into relatively uniform microthrombus by using a steel spatula. The microthrombus suspension was then transferred into a 1 mL injector until use. At the same time when the clip on the carotid internal artery of the rat was released, the 1 mL thrombus suspension in the injector was slowly injected from the carotid external artery of the rat to its proximal end, and then was injected into the brain of the rat through the carotid internal artery. Subsequently, the proximal end of the carotid external artery was ligated, the arterial clips on the carotid internal artery and the carotid common artery were released, and blood flow was restored. Injection of urokinase in normal saline (positive control group, at a dosage of 20000 IU/kg), tPA in normal saline (positive control group, at a dosage of 3 mg/kg), normal saline (blank control group, at a dosage of 3 mL/kg), or compound Ie in normal saline (at a dosage of 1 μmol/kg, 0.1 μmol/kg or 0.01 μmol/kg) was carried out. 24 h after the rats were awake, the degree of damage in neural function was evaluated by the Zealonga method. A score of 0 indicated no sign of loss in neural function, 1 indicated the front limbs on the undamaged side could not stretch out, 2 indicated walking toward the undamaged side, 3 indicated tail-chasing walking in circles toward the undamaged side, 4 indicated involuntary walking with disturbance of consciousness, and 5 indicated death. As shown in the results, in rats receiving immediate treatment after the onset of stroke with […] compound Ie, the percentage of rats with a neural function score of 0 was 60%, 30%, and 0%, respectively; and the percentage of rats with a neural function score of 1 was 20%, 30%, and 10%, respectively.

[4] = Day 1, tPA 3 mg/kg once per day from 6 h after stroke onset, n=6
[5] = Day 2, tPA 3 mg/kg once per day from 6 h after stroke onset, n=6
[6] = Day 1, tPA 3 mg/kg once per day from 4 h after stroke onset, n=6
[7] = Day 2, tPA 3 mg/kg once per day from 4 h after stroke onset, n=6

With “tPA: tissue-type plasminogen activator, positive control” the “number of rats scored Score 0” value [1, 4] was 1 rat^ rats, the “number of rats scored Score 1” value [1, 4] was 1 rat rats and the “number of rats scored Score 2” value [1, 4] was 1 rat rats. For the same substance, the “number of rats scored Score 3” value [1, 4] was 1 rat rats, the “number of rats scored Score 4” value [1, 4] was 2 rats and the “number of rats scored Score 0” value [1, 5] was 2 rats. The “number of rats scored Score 2” value [1, 5] was 1 rat rats, the “number of rats scored Score 3” value [1, 5] was 1 rat rats and the “rats recovered to have only the sign of slight loss in neural function” value ([1]; after two doses, tPA 3 mg/kg each day from 6 h after stroke onset, 6 rats) was 2 rats. The rats died ([1]; out of 6 rats, within 24 h, tPA 3 mg/kg each day from 6 h after stroke onset) was 2, the “autopsy on the dead rats” value ([1]; tPA 3 mg/kg each day from 6 h after stroke onset) was “hemorrhage in internal organs, particularly severe hemorrhage in lungs” and the “number of rats scored Score 1” value [2, 6] was 2 rats. For the same substance, the “number of rats scored Score 2” value [2, 6] was 3 rats, the “number of rats scored Score 3” value [2, 6] was 1 rat rats and the “number of rats scored Score 0” value [2, 7] was 2 rats. The “number of rats scored Score 1” value [2, 7] was 2 rats, the “number of rats scored Score 2” value [2, 7] was 1 rat^ rats and the “rats recovered to have only the sign of slight loss in neural function” value ([2]; after two doses, tPA 3 mg/kg each day from 4 h after stroke onset, 6 rats) was 2 rats. The rats died ([2]; out of 6 rats, within 24 h, tPA 3 mg/kg each day from 4 h after stroke onset) was 1, the “autopsy on the dead rat” value ([2]; tPA 3 mg/kg each day from 4 h after stroke onset) was “hemorrhage in internal organs, particularly severe hemorrhage in lungs” and the “percentage of rats with a neural function score of 0” value ([3]; 3 mg/kg tPA) was 40%. The “percentage of rats with a neural function score of 1” value ([3]; 3 mg/kg tPA) was 10%, the “number of rats scored Score 0” value ([3]; tPA 3 mg/kg, n = 10) was 4 and the “number of rats scored Score 1” value ([3]; tPA 3 mg/kg, n = 10) was 1. The “number of rats scored Score 2” value ([3]; tPA 3 mg/kg, n = 10) was 1, the “number of rats scored Score 3” value ([3]; tPA 3 mg/kg, n = 10) was 3 and the “number of rats scored Score 4” value ([3]; tPA 3 mg/kg, n = 10) was 1. The “number of rats scored Score 5” value ([3]; tPA 3 mg/kg, n = 10) was 0.
